One experiment concerns TLR2. Briefly: IL-8 production, calcium flux agonist plus TLR2 ligand (FIGS. 2A-2E). Format: cell-based. The following applies: suboptimal doses: 20 nM thapsigargin, 316 nM A23187, 1 μM ionomycin, 10 μM cyclopiazonic acid, 31.6 μM DBHQ. As to the method: (§1) To investigate if that observation was also true for other pattern recognition receptors, and especially for TLR and NOD receptors and other ligands, the inventors tested numerous TLR and NOD receptors and various ligands.
(§2) The doses used in this experiment were 20 nM for thapsigargin, 316 nM for A23187, 1 μM for ionomycin, 10 μM for cyclopiazonic acid, and 31.6 μM for DBHQ.
(§3) Thus, a clear pattern of adjuvant activity of calcium flux agonists on the immune response, and especially on IL-8 production and NF-κB signaling is evident where the immune response is associated with a TLR- or NOD-mediated event.

Another experiment has as its system TLR9. Briefly: IL-8 production, calcium flux agonist plus TLR9 ligand (FIGS. 2A, 2B, 2E). The following applies: suboptimal doses: 20 nM thapsigargin, 316 nM A23187, 1 μM ionomycin. Format: cell-based. As to the method:
as §1, §2, §3
In general terms: Calcium assays in cells follow changes in intracellular calcium, usually with a dye or a luminescent sensor.

In the next experiment the test system is TLR4. Description: IL-8 production, calcium flux agonist plus TLR4 ligand (FIGS. 2A-2E). Format: cell-based. The following applies: suboptimal doses: 20 nM thapsigargin, 316 nM A23187, 1 μM ionomycin, 10 μM cyclopiazonic acid, 31.6 μM DBHQ. As to the method: as §1, §2, §3
The test system of another experiment is NOD2. Briefly: IL-8 production, calcium flux agonist plus NOD2 ligand (FIGS. 2A-2E). Format: cell-based. Conditions: suboptimal doses: 20 nM thapsigargin, 316 nM A23187, 1 μM ionomycin, 10 μM cyclopiazonic acid, 31.6 μM DBHQ. The method, then: as §1, §2, §3
Experiment [1] concerns human THP-1 promonocytic leukemia cell line. Description: IL-8 production / cytokine release from THP-1 cells, TLR2 ligand with or without calcium flux agonist. The class given is cell-based. The following applies: suboptimal dose of TLR2 ligand (Pam2CSK4 / Pam2CYS) plus suboptimal dose of agonist; beyond cumulative individual responses. The method, then: (§4) For example, human promonocytic THP-1 cells were incubated in the presence or absence of a suboptimal dose of the TLR2 ligand Pam2CSK4 and compared to similarly treated cells which also received suboptimal doses of ionophore (here: A23187 and ionomycin). […] In another example, KB-LUC THP-1 cells (a THP-1-derived transfectant line harboring an NF-κB-driven luciferase expression cassette) were cultivated in the presence or absence of a suboptimal dose of the TLR2 ligand Pam2CSK4 and compared to similarly treated cells that also received suboptimal doses of various SERCA inhibitors.
Here, the ionophores A23187 and ionomycin, as well as the SERCA inhibitor thapsigargin synergize with the TLR2 ligand (Pam2CYS) in the activation of cytokine release from the human THP-1 promonocytic leukemia cell line. It should be especially noted that while the TLR2 ligand alone provided for about 5 ng/ml IL-8 response, addition of a suboptimal dose of the calcium flux agonists (e.g. 20 nM for thapsigargin, 316 nM for A23187, and 1 μM for ionomycin) produced more than 10-fold quantities of IL-8 production in the cells.

In another experiment the test system is κB-LUC THP-1 cells. Description: Activation of κB-LUC THP-1 cells by S. aureus conditioned/spent media (FIGS. 3A-3C). The following applies: for recognition of S. aureus conditioned/spent media (activation of κB-LUC THP-1 cells): suboptimal doses: thapsigargin, 316 nM A23187, 1 μM ionomycin. Format: cell-based, human.
The next experiment deals with NOD1. Briefly: IL-8 production, calcium flux agonist plus NOD1 ligand (FIGS. 2A-2E). The class given is cell-based. The following applies: suboptimal doses: 20 nM thapsigargin, 316 nM A23187, 1 μM ionomycin, 10 μM cyclopiazonic acid, 31.6 μM DBHQ. As to the method: as §1, §2, §3
For another experiment, the system named is TLR5. Briefly: IL-8 production, calcium flux agonist plus TLR5 ligand (FIGS. 2A-2E). Format: cell-based. The following applies: suboptimal doses: 20 nM thapsigargin, 316 nM A23187, 1 μM ionomycin, 10 μM cyclopiazonic acid, 31.6 μM DBHQ. As to the method: as §1, §2, §3
For the next experiment, the system named is KB-LUC THP-1 cells. Briefly: NF-κB-driven luciferase in KB-LUC THP-1 cells, TLR2 ligand Pam2CSK4 with or without SERCA inhibitor. Format: cell-based, human. Conditions: suboptimal dose of Pam2CSK4 plus suboptimal dose of SERCA inhibitor; beyond cumulative individual responses. As to the method: as §4

“Also recorded” adds a separate entry of the source.

With `CNc1ccc2oc(C[C@H]3O[C@@]4(CC[C@H]3C)O[C@H]([C@H](C)C(=O)c3ccc[nH]3)[C@H](C)C[C@H]4C)nc2c1C(=O)O` [A23187], in the experiment on TLR2, the “synergistic effect to augment cellular response (IL-8 production) for TLR2” value (shortened to “synergistic effect … for TLR2”) is on record as “synergistic effect”. Further, in the experiment with TLR9, the “synergistic effect to augment cellular response (IL-8 production) for TLR9” value (shortened to “synergistic effect … for TLR9”) is reported as “synergistic effect”. In addition, in the experiment with TLR4, the “synergistic effect to augment cellular response (IL-8 production) for TLR4” value (“synergistic effect … for TLR4” for short) was “synergistic effect”. In the experiment on NOD2, the “synergistic effect to augment cellular response (IL-8 production) for NOD2” value (from here on “synergistic effect … for NOD2”) is “synergistic effect”. Moreover, the “synergy with TLR2 ligand in IL-8 production / cytokine release” value in experiment [1] is “significantly increased; also recorded: synergize”. Moreover, in the experiment with κB-LUC THP-1 cells, the “recognition of S. aureus conditioned/spent media (activation of κB-LUC THP-1 cells)” value is on record as “significantly enhanced”. In addition, the “synergistic effect to augment cellular response (IL-8 production) for NOD1” value (from here on “synergistic effect … for NOD1”) in the experiment with NOD1 is “synergistic effect”. The “synergistic effect to augment cellular response (IL-8 production) for TLR5” value (from here on “synergistic effect … for TLR5”) in the experiment on TLR5 is recorded as “synergistic effect”.

As to `CC(C)(C)c1cc(O)c(C(C)(C)C)cc1O` [DBHQ, 2,5-di(tert-butyl) hydroquinone], the “synergistic effect … for TLR2” value in the experiment on TLR2 was “synergistic effect”. Besides, in the experiment on TLR4, the “synergistic effect … for TLR4” value was “synergistic effect”. For the same compound, the “synergistic effect … for NOD2” value in the experiment on NOD2 is “synergistic effect”. In addition, in the experiment with NOD1, the “synergistic effect … for NOD1” value is on record as “synergistic effect”. For the same compound, the “synergistic effect … for TLR5” value in the experiment with TLR5 was “synergistic effect”.

On to `O=C(O)CN(CCOCCOCCN(CC(=O)O)CC(=O)O)CC(=O)O` [EGTA], for which the “effect on calcium flux-induced synergy” value in the experiment with κB-LUC THP-1 cells (extracellular chelator added at 1 mM) was “inhibited”.

Regarding `C[C@H](CCC(=O)O)C[C@H](C)C[C@H](C)C(=O)/C=C(\O)[C@H](C)C[C@H](C)C/C=C/[C@@H](C)[C@@H](O)[C@@H](C)[C@@H](O)C[C@@H]1CC[C@@](C)([C@H]2CC[C@@](C)([C@@H](C)O)O2)O1` [ionomycin], in the experiment with TLR2, the “synergistic effect … for TLR2” value is on record as “synergistic effect”. The “synergistic effect … for TLR9” value in the experiment on TLR9 is “synergistic effect”. Also, in the experiment on TLR4, the “synergistic effect … for TLR4” value is reported as “synergistic effect”. Moreover, in the experiment on NOD2, the “synergistic effect … for NOD2” value is reported as “synergistic effect”. The “synergy with TLR2 ligand in IL-8 production / cytokine release” value in [1] is recorded as “significantly increased; also recorded: synergize”. Further, in the experiment on κB-LUC THP-1 cells, the “recognition of S. aureus conditioned/spent media (activation of κB-LUC THP-1 cells)” value is listed as “significantly enhanced”. In addition, in the experiment with NOD1, the “synergistic effect … for NOD1” value is on record as “synergistic effect”. In the experiment with TLR5, the “synergistic effect … for TLR5” value was “synergistic effect”.

In the case of `C/C=C(/C)C(=O)O[C@H]1C(C)=C2[C@H]([C@@H]1OC(=O)CCCCCCC)[C@@](C)(OC(C)=O)C[C@H](OC(=O)CCC)[C@@]1(O)[C@H]2OC(=O)[C@@]1(C)O` [thapsigargin], in the experiment on TLR2, the “synergistic effect … for TLR2” value is reported as “synergistic effect”. Moreover, in the experiment with TLR9, the “synergistic effect … for TLR9” value was “synergistic effect”. The “synergistic effect … for TLR4” value in the experiment with TLR4 is on record as “synergistic effect”. Moreover, in the experiment on KB-LUC THP-1 cells, the “amount of luciferase produced (NF-κB-driven), synergy with TLR2 ligand” value was “significantly increased”. Also, the “synergistic effect … for NOD2” value in the experiment on NOD2 is “synergistic effect”. Further, the “synergy with TLR2 ligand in IL-8 production / cytokine release” value in experiment [1] is reported as “synergize”. The “recognition of S. aureus conditioned/spent media (activation of κB-LUC THP-1 cells)” value in the experiment with κB-LUC THP-1 cells is recorded as “significantly enhanced”. Besides, the “synergistic effect … for NOD1” value with NOD1 was “synergistic effect”. In the experiment on TLR5, the “synergistic effect … for TLR5” value is “synergistic effect”.

These data come from patent US10434142B2, “Compositions and methods of improved wound healing” (Chan Soon-Shiong Nanthealth Foundation, priority 2013, dated 2019).
